Experimental data reported in PubChem BioAssay AID248 (DTP/NCI, 2004).
Where “and” joins values, the source holds several entries; their conditions need not be identical. Equal entries are not always repeated. Inconclusive results and toxic doses are left out. Cut-off read from the data, not from the text of the source: active = T/C of 150% or more; inactive = T/C below 125%.

System: L1210 leukemia ip in BDF1 mice, survival T/C
Assay: NCI In Vivo Anticancer Drug Screen. Data for tumor model L1210 Leukemia (intraperitoneal) in B6D2F1 (BDF1) mice
Details: endpoint: mean survival time, higher = longer survival
In short: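 In this screen, tumor-bearing mice given compound are compared to those given vehicle, and their survival values are reported as a treated-to-control quotient.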

[1] = dose: 100.0 mg/kg/injection, schedule: Q04DX003 (ip), vehicle: saline with Tween-80
[2] = dose: 200.0 mg/kg/injection, schedule: Q04DX003 (ip), vehicle: saline with Tween-80
[3] = dose: 400.0 mg/kg/injection, schedule: Q04DX003 (ip), vehicle: saline with Tween-80
[4] = dose: 100.0 mg/kg/injection, schedule: Q01DX001 (ip), vehicle: saline with Tween-80
[5] = dose: 200.0 mg/kg/injection, schedule: Q01DX001 (ip), vehicle: saline with Tween-80
[6] = dose: 400.0 mg/kg/injection, schedule: Q01DX001 (ip), vehicle: saline with Tween-80
[7] = dose: 100.0 mg/kg/injection, schedule: Q04DX003 (ip), vehicle: Klucel (hydroxypropylcellulose) (HPC)
[8] = dose: 200.0 mg/kg/injection, schedule: Q04DX003 (ip), vehicle: Klucel (hydroxypropylcellulose) (HPC)
[9] = dose: 400.0 mg/kg/injection, schedule: Q04DX003 (ip), vehicle: Klucel (hydroxypropylcellulose) (HPC)
[10] = dose: 100.0 mg/kg/injection, schedule: Q01DX009 (ip), vehicle: saline with Tween-80
[11] = dose: 200.0 mg/kg/injection, schedule: Q01DX009 (ip), vehicle: saline with Tween-80
[12] = dose: 400.0 mg/kg/injection, schedule: Q01DX009 (ip), vehicle: saline with Tween-80
[13] = dose: 100.0 mg/kg/injection, schedule: Q01DX001 (ip), vehicle: saline

Measured: T/C

O=NN(CCCl)C(=O)N[C@H]1CCCC[C@H]1Cl
active: dose: 16.0 mg/kg/injection, schedule: Q01DX001 (ip), vehicle: carboxymethylcellulose (CMC) 175 % of control | dose: 31.0 mg/kg/injection, schedule: Q01DX001 (ip), vehicle: carboxymethylcellulose (CMC) 180 % of control | dose: 36.0 mg/kg/injection, schedule: Q01DX001 (ip), vehicle: carboxymethylcellulose (CMC) 177 % of control | dose: 40.0 mg/kg/injection, schedule: Q01DX001 (ip), vehicle: carboxymethylcellulose (CMC) 168 % of control | dose: 54.0 mg/kg/injection, schedule: Q01DX001 (ip), vehicle: carboxymethylcellulose (CMC) 289 % of control | dose: 62.0 mg/kg/injection, schedule: Q01DX001 (ip), vehicle: carboxymethylcellulose (CMC) 218 % of control and 304 % of control | dose: 72.0 mg/kg/injection, schedule: Q01DX001 (ip), vehicle: carboxymethylcellulose (CMC) 289 % of control | dose: 90.0 mg/kg/injection, schedule: Q01DX001 (ip), vehicle: carboxymethylcellulose (CMC) 295 % of control | dose: 93.0 mg/kg/injection, schedule: Q01DX001 (ip), vehicle: carboxymethylcellulose (CMC) 177 % of control | dose: 108.0 mg/kg/injection, schedule: Q01DX001 (ip), vehicle: carboxymethylcellulose (CMC) 307 % of control | dose: 125.0 mg/kg/injection, schedule: Q01DX001 (ip), vehicle: carboxymethylcellulose (CMC) 175 % of control | dose: 135.0 mg/kg/injection, schedule: Q01DX001 (ip), vehicle: carboxymethylcellulose (CMC) 306 % of control | dose: 207.0 mg/kg/injection, schedule: Q01DX001 (ip), vehicle: carboxymethylcellulose (CMC) 242 % of control
inactive: dose: 12.0 mg/kg/injection, schedule: Q01DX001 (ip), vehicle: carboxymethylcellulose (CMC) 108 % of control | dose: 187.0 mg/kg/injection, schedule: Q01DX001 (ip), vehicle: carboxymethylcellulose (CMC) 107 % of control

Cc1ccc([N+](=O)[O-])cc1NC(=O)NCCCl
inactive: [1] 90 % of control | [2] 90 % of control | [3] 92 % of control

CC1=C(Cl)CS(=O)(=O)C1
inactive: [4] 104 % of control | [5] 100 % of control

CCOC(=O)Nc1cc(NCC(O)CN(C)c2ccc(Cl)cc2)c([N+](=O)[O-])c(N)n1 (configuration not stated)
inactive: [4] 92 % of control | [5] 86 % of control | [6] 89 % of control

c1ccc(C2NC2(c2ccccc2)C2(c3ccccc3)SCCCS2)cc1 (configuration not stated)
inactive: [7] 111 % of control | [8] 103 % of control | [9] 105 % of control

CCC(N)c1ccc2c3c(cccc13)CC2 (configuration not stated)
inactive: [10] 88 % of control | [1] 93 % of control | [11] 90 % of control | [2] 90 % of control | [12] 93 % of control | [3] 90 % of control

CC(C)N(C)C(C)(C)CO
inactive: dose: 100.0 mg/kg/injection, schedule: Q04DX003 (ip), vehicle: saline sonified 92 % of control | dose: 200.0 mg/kg/injection, schedule: Q04DX003 (ip), vehicle: saline sonified 106 % of control

N#C[C@@H]1C2C=CC(CC2)[C@H]1C#N
inactive: dose: 0.5 mg/kg/injection, schedule: Q03HX024 (ip), vehicle: gum acacia 106 % of control | dose: 0.7 mg/kg/injection, schedule: Q03HX024 (ip), vehicle: gum acacia 106 % of control | dose: 1.1 mg/kg/injection, schedule: Q03HX024 (ip), vehicle: gum acacia 106 % of control | dose: 1.6 mg/kg/injection, schedule: Q03HX024 (ip), vehicle: gum acacia 102 % of control | dose: 2.4 mg/kg/injection, schedule: Q01DX009 (ip), vehicle: gum acacia 104 % of control | dose: 2.4 mg/kg/injection, schedule: Q03HX024 (ip), vehicle: gum acacia 103 % of control | dose: 3.6 mg/kg/injection, schedule: Q01DX009 (ip), vehicle: gum acacia 102 % of control | dose: 5.0 mg/kg/injection, schedule: Q01DX001 (ip), vehicle: gum acacia 103 % of control | dose: 5.0 mg/kg/injection, schedule: Q04DX003 (ip), vehicle: gum acacia 97 % of control | dose: 7.0 mg/kg/injection, schedule: Q01DX001 (ip), vehicle: gum acacia 101 % of control | dose: 7.0 mg/kg/injection, schedule: Q04DX003 (ip), vehicle: gum acacia 97 % of control | dose: 11.0 mg/kg/injection, schedule: Q01DX001 (ip), vehicle: gum acacia 100 % of control | dose: 11.0 mg/kg/injection, schedule: Q04DX003 (ip), vehicle: gum acacia 92 % of control

CC(C)c1cc(C(C)C)n2nc(N)nc2n1
inactive: [10] 96 % of control | [11] 102 % of control | [12] 105 % of control

O=S(=O)(O)C(I)I
inactive: dose: 6.25 mg/kg/injection, schedule: Q01DX001 (ip), vehicle: saline 103 % of control | dose: 12.5 mg/kg/injection, schedule: Q01DX001 (ip), vehicle: saline 100 % of control | dose: 25.0 mg/kg/injection, schedule: Q01DX001 (ip), vehicle: saline 98 % of control and 100 % of control | [13] 103 % of control

CCCCCCCCCCCCCCCCCCSCCO
inactive: [7] 100 % of control and 90 % of control | [8] 102 % of control | [9] 92 % of control and 100 % of control

Cc1ccc(N)cc1CO
inactive: dose: 100.0 mg/kg/injection, schedule: Q01DX001 (ip), vehicle: Klucel (hydroxypropylcellulose) (HPC) 94 % of control | [7] 94 % of control | dose: 200.0 mg/kg/injection, schedule: Q01DX001 (ip), vehicle: Klucel (hydroxypropylcellulose) (HPC) 92 % of control | [8] 103 % of control | dose: 400.0 mg/kg/injection, schedule: Q01DX001 (ip), vehicle: Klucel (hydroxypropylcellulose) (HPC) 100 % of control | [9] 94 % of control

CCC1(Br)OC1=O (configuration not stated)
inactive: dose: 50.0 mg/kg/injection, schedule: Q01DX009 (ip), vehicle: acetone 100 % of control | dose: 100.0 mg/kg/injection, schedule: Q01DX009 (ip), vehicle: acetone 99 % of control | dose: 100.0 mg/kg/injection, schedule: Q04DX003 (ip), vehicle: acetone 97 % of control | dose: 200.0 mg/kg/injection, schedule: Q04DX003 (ip), vehicle: acetone 98 % of control

C[Si](C)(C)c1c(F)c(F)c(F)c(F)c1F
inactive: [10] 102 % of control | [11] 94 % of control | [12] 97 % of control

C=C1CC23CC[C@H]4[C@@](C)(CCC[C@@]4(C)C(=O)OC4OC(CO)C(O)C(O)C4O)[C@@H]2CC[C@@]1(OC1OC(CO)C(O)C(O)C1OC1OC(CO)C(O)C(O)C1O)C3 (some centres not stated)
inactive: [4] 101 % of control | [5] 93 % of control | [6] 96 % of control

COc1cc(C)ccc1C(=O)c1ccc(C)cc1OC
inactive: [4] 100 % of control | [10] 98 % of control | [7] 86 % of control | [5] 100 % of control | [11] 92 % of control | [8] 93 % of control | [6] 92 % of control | [12] 103 % of control | [9] 93 % of control

c1ccc2c(c1)-c1cccc3c1c-2cc1ccccc13
inactive: dose: 100.0 mg/kg/injection, schedule: Q01DX001 (ip), vehicle: other 104 % of control | dose: 200.0 mg/kg/injection, schedule: Q01DX001 (ip), vehicle: other 101 % of control | dose: 400.0 mg/kg/injection, schedule: Q01DX001 (ip), vehicle: other 95 % of control

CC[Si](Cl)(CC)c1ccccc1
active: dose: 400.0 mg/kg/injection, schedule: Q01DX001 (ip), vehicle: saline 195 % of control
inactive: [13] 93 % of control | dose: 100.0 mg/kg/injection, schedule: Q01DX001 (sc), vehicle: olive oil, sesame oil, peanut oil 107 % of control | dose: 200.0 mg/kg/injection, schedule: Q01DX001 (ip), vehicle: saline 90 % of control | dose: 200.0 mg/kg/injection, schedule: Q01DX001 (sc), vehicle: olive oil, sesame oil, peanut oil 107 % of control | dose: 400.0 mg/kg/injection, schedule: Q01DX001 (sc), vehicle: olive oil, sesame oil, peanut oil 102 % of control

COc1cc(/C=N/NC(=O)N/N=C/c2cc(OC)c(OC)c(OC)c2)cc(OC)c1OC
inactive: [7] 105 % of control | [8] 105 % of control | [9] 108 % of control

O=C(O)c1cccnc1.[Cu+2]
inactive: dose: 9.5 mg/kg/injection, schedule: Q01DX001 (ip), vehicle: other 97 % of control | dose: 19.0 mg/kg/injection, schedule: Q01DX001 (ip), vehicle: other 97 % of control | dose: 38.0 mg/kg/injection, schedule: Q01DX001 (ip), vehicle: other 100 % of control
